According to patent US20240285627A1, “DRUG COMBINATION OF FAK INHIBITOR AND IMMUNOGENIC CELL DEATH INDUCER AND USE THEREOF” (INXMED (NANJING) CO., LTD., priority 2022, published 2024):

Columns and labels:
Assay type in all cases: cell-based
[1] = test system: Mouse colon cancer CT26 cells; experiment: Induction of immunogenic cell death targets by Crizotinib and IN10018 in CT26 cells (Example 7); details: CT26, 48 hours; IN10018 5 μM, Crizotinib 3 μM
Procedure: CT26 cells were cultured in monolayer in vitro, and the culture conditions were: RPMI-1640 medium with 10% fetal bovine serum, 37° C. and 5% CO2. Trypsin was used for routine digestion and passage treatment two or three times a week. When the cells were in exponential growth period and the adherent confluence reached 80%-90%, the cells were collected and plated.
CT26 cells were digested with trypsin, then collected and counted. According to the counting results, the cells were diluted with RPMI-1640+10% FBS, and the dilution concentration was 50,000 cells per ml. Then, the cells were plated on 24-well culture plates, and 1 ml of cell suspension (50,000 cells) was laid in each well. After plating, the cells were cultured in 37° C. and 5% CO2 incubator. […]
After the cells were washed twice with flow buffer (DPBS+2% FBS), the cells in each group were divided into two parts on average, one of which was added with 0.5 μl of AF647 anti-Calreticulin antibody in each well, then mixed well, and incubated in the dark for 20 minutes at 4° C. […] The cells were cultured at room temperature in the dark for 15 minutes, and then analyzed by flow cytometry.
Data analysis: After the assay, the cell positive rate was analyzed by Flowjo(V10) software.

[2] = test system: Mouse colon cancer CT26 cells; experiment: CT26 cells with IN10018 and Lurbinectedin: microscope and flow cytometry for CRT / Annexin V (Example 2); details: CT26, 48 hours; IN10018 5 μM, Lurbinectedin 0.00142 μM
Procedure: Mouse colon cancer CT26 cells (Insitute of Biochemistry and Cell Biology) were cultured with RPMI-1640 (Shanghai Basalmedia, classification number: L210KJ, batch number: F210916)+10% FBS (Gibco, classification number: 10099-141c, batch number: 2158737cp) and passaged twice. When the cells were in good condition, the culture solution was placed in a 24-well plate. After the cells were spread for 24 hours, four groups were set up, wherein the first group was a control group, and the culture medium was added; the second group was IN10018 with a concentration of 5 μM; the third group was Lurbinectedin (DC chemicals, classification number: DC12502, batch number: DC1250203) with a concentration of 0.00142 μM; and the fourth group was IN10018 (5 μM) combined with Lurbinectedin (0.00142 μM). The drugs were mixed and the mixture was cultured in a 5% CO2 incubator at 37° C. for 48 hours.
After 48 hours of drug action, the cells were observed under a microscope and photographed, and the photos were kept. Then the cells were collected, subjected to flow analysis, and washed twice with flow buffer (PBS+2% FBS). 0.5 μl of AF647 anti-Calreticulin antibody (abcam, classification number: ab196159, batch number: CR33676773) was added to each well and fully mixed. […] The mixture was cultured at room temperature in the dark for 15 minutes, and then analyzed by flow cytometry.

[3] = test system: Mouse colon cancer CT26 cells; experiment: Proliferation of CT26 cells, CCK8, Lurbinectedin with or without IN10018 (Example 1); details: 72 hours, combination group: 6 μM IN10018 added to each well
Procedure: Mouse colon cancer CT26 cells (Insitute of Biochemistry and Cell Biology) were cultured with RPMI-1640 (Shanghai Basalmedia, classification number: L210KJ, batch number: F210916)+10% FBS (Gibco, classification number: 10099-141c, batch number: 2158737cp) and passaged twice. When the cells were in good condition, the culture solution was placed in a 96-well plate with 3000 cells/well. After the cells were spread for 24 hours, a culture medium containing Lurbinectedin (DC chemicals, classification number: DC12502, batch number: DC1250203) was added. 10 drug action concentrations were set, wherein the first concentration was 0.1 μM, which was serially diluted 4 times, and the last concentration was a control with a drug concentration of 0. Each drug concentration was set in triplicate. At the same time, another group of cells was established with the same drug concentration as the above method. The difference was that 6 μM IN10018 was added to each well. The drugs were mixed and the mixture was cultured in a 5% CO2 incubator at 37° C. for 72 hours.
After 72 hours of drug action, the cells were observed under a microscope, and 10 μl of CCK8 detection reagent (Cellorlab, classification number: CX001M, batch number: 2571100) was added to each well. […] Then the plate was read with a microplate reader OD450 ([…]).

| SMILES | cell state under a microscope (cell death; cell viability) [1] | cell state under a microscope [2] | IC50 [3] [nM] |
| --- | --- | --- | --- |
| C[C@@H](Oc1cc(-c2cnn(C3CCNCC3)c2)cnc1N)c1c(Cl)ccc(F)c1Cl [Crizotinib] | cell death was obvious |  |  |
| COc1ccc2[nH]c3c(c2c1)CCN[C@]31CS[C@@H]2c3c(OC(C)=O)c(C)c4c(c3[C@H](COC1=O)N1[C@@H]2[C@H]2c3c(cc(C)c(OC)c3O)C[C@@H]([C@@H]1O)N2C)OCO4 [Lurbinectedin] |  | poor | 0.71 |
